Source: patent EP4745137A1 (Gluetacs Therapeutics (Shanghai) Co., Ltd., priority 2023, dated 2025)

What was measured:
WEE1 = biological target: T1, WEE1 (Homo sapiens, UniProt P30291+Q96SW2); assay: Western-blot assay of substrate protein degradation in hPBMCs, WEE1; type: cell-based; conditions: 24 hours of compound treatment
T1 construct: endogenous in cells; host or cells: hPBMCs (Milecell Biotechnologies)

IKZF1 = biological target: T2, IKZF1 (Homo sapiens, UniProt Q13422+Q96SW2); assay: Western-blot assay of substrate protein degradation in hPBMCs, IKZF1; type: cell-based; conditions: 24 hours of compound treatment
T2 construct: endogenous in cells; host or cells: hPBMCs (Milecell Biotechnologies)

IKZF2 = biological target: T3, IKZF2 (Homo sapiens, UniProt Q96SW2+Q9UKS7); assay: Western-blot assay of substrate protein degradation in hPBMCs, IKZF2; type: cell-based; conditions: 24 hours of compound treatment
T3 construct: endogenous in cells; host or cells: hPBMCs (Milecell Biotechnologies)

IKZF3 = biological target: T4, IKZF3 (Homo sapiens, UniProt Q96SW2+Q9UKT9); assay: Western-blot assay of substrate protein degradation in hPBMCs, IKZF3; type: cell-based; conditions: 24 hours of compound treatment
T4 construct: endogenous in cells; host or cells: hPBMCs (Milecell Biotechnologies)

CK1α = biological target: T5, CK1α (Homo sapiens, UniProt P48729+Q96SW2); assay: Western-blot assay of substrate protein degradation in hPBMCs, CK1α; type: cell-based; conditions: 24 hours of compound treatment
T5 construct: endogenous in cells; host or cells: hPBMCs (Milecell Biotechnologies)

GSPT1 = biological target: T6, GSPT1 (Homo sapiens, UniProt P15170+Q96SW2); assay: Western-blot assay of substrate protein degradation in hPBMCs, GSPT1; type: cell-based; conditions: 24 hours of compound treatment
T6 construct: endogenous in cells; host or cells: hPBMCs (Milecell Biotechnologies)

MM.1S = assay: Tumor cell proliferation inhibition (CellTiter-Meiluncell Luminescent Cell Viability Assay), MM.1S; conditions: Homo sapiens, MM1.S, read-out: inhibitory activity (IC50, nM) against tumor cells proliferation, MM.1S
[1] = test system: Human acute T lymphocytic leukemia cells (Molt-4); assay: Tumor cell proliferation inhibition (CellTiter-Meiluncell Luminescent Cell Viability Assay), Molt-4; conditions: MOLT-4, read-out: inhibitory activity (IC50, nM) against tumor cells proliferation, Molt-4
MV-4-11 = assay: Tumor cell proliferation inhibition (CellTiter-Meiluncell Luminescent Cell Viability Assay), MV-4-11; conditions: Homo sapiens, MV4-11, read-out: inhibitory activity (IC50, nM) against tumor cells proliferation, MV-4-11
Description: The tumor cells used herein were cultured in a cell culture medium listed in table 2 at 37°C in an incubator with 5% CO2. Prior to experimentation, all cell lines used were correctly identified by STR profiling, and tested negative for mycoplasma contamination using a mycoplasma detection kit through routine screenings.
On the following day, the test compounds of the present disclosure were subjected to serial dilution. […] Subsequently, 0.5 µL of the test compound dilution was transferred into the 96-well plate containing the cells, with each well containing 100 µL of cell culture medium. […] Into the 96-well plate, the diluted test compounds and corresponding detection reagents were added, resulting in final test compound concentrations of 500 nM and 10 nM, respectively.
After the cells were treated with the compounds of the present disclosure for a specified period (the treatment durations were shown in Table 3), the cell viability assay reagent was added to the culture medium according to the kit's instructions to determine cell viability. […] All controls were treated using the same procedure as the compounds of the present disclosure. The growth inhibition curves for the compounds of the present disclosure were plotted using Prism GraphPad software, and the IC50 values were calculated therefrom.

CCRF-CEM = assay: Tumor cell proliferation inhibition (CellTiter-Meiluncell Luminescent Cell Viability Assay), CCRF-CEM; conditions: Homo sapiens, read-out: inhibitory activity (IC50, nM) against tumor cells proliferation, CCRF-CEM
[2] = biological target: T7, human Cereblon WT GST-tagged protein (Homo sapiens, UniProt Q96SW2); assay: CRBN-binding affinity by HTRF (CEREBLON BINDING kit); conditions: HTRF inhibitory activity, CEREBLON BINDING kit; read-out: HTRF IC50
T7 construct: purchased CISBIO 64BDCRBNPEH

SR = assay: Tumor cell proliferation inhibition (CellTiter-Meiluncell Luminescent Cell Viability Assay), SR; conditions: Homo sapiens, read-out: inhibitory activity (IC50, nM) against tumor cells proliferation, SR
Jurkat = assay: Tumor cell proliferation inhibition (CellTiter-Meiluncell Luminescent Cell Viability Assay), Jurkat; conditions: Homo sapiens, read-out: inhibitory activity (IC50, nM) against tumor cells proliferation, Jurkat
NCI-H1975 = assay: Tumor cell proliferation inhibition (CellTiter-Meiluncell Luminescent Cell Viability Assay), NCI-H1975; conditions: Homo sapiens, NCI-H1975, read-out: inhibitory activity (IC50, nM) against tumor cells proliferation, H1975
[3] = 50 nM and 500 nM tested (concentration behind the class not stated)
[4] = compounds tested at 50 nM and 500 nM (concentration of the table not stated)

T2 sequence (Q13422 whole entry): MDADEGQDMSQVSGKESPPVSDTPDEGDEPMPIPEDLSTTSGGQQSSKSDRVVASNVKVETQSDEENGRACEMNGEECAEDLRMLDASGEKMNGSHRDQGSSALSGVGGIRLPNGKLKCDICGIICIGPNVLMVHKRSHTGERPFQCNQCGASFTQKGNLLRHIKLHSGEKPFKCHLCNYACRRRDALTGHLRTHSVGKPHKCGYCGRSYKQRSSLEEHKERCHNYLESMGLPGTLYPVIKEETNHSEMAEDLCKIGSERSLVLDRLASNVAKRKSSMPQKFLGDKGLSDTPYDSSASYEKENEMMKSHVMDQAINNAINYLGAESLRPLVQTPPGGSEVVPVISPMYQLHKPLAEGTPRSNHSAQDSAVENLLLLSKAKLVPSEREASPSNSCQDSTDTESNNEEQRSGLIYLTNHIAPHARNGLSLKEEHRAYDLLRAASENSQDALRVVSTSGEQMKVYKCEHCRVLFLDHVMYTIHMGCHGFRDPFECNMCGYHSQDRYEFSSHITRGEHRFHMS
T2 sequence (Q96SW2 whole entry): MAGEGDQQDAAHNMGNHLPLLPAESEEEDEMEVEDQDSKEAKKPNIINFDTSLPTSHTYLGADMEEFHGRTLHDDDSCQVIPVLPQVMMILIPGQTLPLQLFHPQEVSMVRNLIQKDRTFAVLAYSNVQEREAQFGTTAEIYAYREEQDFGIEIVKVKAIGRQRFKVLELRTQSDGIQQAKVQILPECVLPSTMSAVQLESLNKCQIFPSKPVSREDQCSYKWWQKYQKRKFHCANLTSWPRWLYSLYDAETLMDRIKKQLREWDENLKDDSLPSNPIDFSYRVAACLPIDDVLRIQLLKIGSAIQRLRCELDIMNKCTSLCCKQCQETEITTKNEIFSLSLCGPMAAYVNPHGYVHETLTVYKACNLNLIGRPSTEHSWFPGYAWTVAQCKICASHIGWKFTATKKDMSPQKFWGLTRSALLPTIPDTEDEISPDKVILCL
T2 sequence (Q16531 whole entry partner): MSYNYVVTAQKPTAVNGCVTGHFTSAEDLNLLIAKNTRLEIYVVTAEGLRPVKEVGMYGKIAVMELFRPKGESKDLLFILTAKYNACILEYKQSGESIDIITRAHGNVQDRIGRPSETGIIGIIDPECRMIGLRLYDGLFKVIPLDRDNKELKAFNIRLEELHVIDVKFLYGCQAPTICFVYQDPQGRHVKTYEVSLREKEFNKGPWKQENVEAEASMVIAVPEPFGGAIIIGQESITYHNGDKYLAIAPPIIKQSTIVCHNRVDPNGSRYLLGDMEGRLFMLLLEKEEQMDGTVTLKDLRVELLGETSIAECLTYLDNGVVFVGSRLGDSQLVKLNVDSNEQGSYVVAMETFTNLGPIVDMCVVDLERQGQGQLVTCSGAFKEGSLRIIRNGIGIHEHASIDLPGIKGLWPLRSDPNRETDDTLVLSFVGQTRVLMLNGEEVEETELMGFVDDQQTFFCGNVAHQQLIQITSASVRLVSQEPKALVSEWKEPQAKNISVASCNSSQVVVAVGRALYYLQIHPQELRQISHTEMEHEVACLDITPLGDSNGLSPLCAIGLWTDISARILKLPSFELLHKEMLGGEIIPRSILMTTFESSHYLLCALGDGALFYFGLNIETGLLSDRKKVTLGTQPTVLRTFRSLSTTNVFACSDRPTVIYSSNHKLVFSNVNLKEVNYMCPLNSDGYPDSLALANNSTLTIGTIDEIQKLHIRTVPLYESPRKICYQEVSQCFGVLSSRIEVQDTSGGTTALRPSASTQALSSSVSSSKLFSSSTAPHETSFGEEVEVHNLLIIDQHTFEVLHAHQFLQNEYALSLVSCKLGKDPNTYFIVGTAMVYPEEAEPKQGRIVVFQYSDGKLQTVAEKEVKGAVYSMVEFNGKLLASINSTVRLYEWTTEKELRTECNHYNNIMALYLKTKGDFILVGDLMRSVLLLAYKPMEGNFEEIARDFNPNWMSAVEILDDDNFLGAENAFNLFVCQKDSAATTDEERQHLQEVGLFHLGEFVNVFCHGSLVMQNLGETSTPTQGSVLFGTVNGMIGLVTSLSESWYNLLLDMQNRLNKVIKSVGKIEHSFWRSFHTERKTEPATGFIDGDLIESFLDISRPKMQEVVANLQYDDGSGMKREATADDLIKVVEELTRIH
T7 sequence (Q96SW2 whole entry): as the sequence (Q96SW2 whole entry) above
T4 sequence (Q9UKT9 whole entry): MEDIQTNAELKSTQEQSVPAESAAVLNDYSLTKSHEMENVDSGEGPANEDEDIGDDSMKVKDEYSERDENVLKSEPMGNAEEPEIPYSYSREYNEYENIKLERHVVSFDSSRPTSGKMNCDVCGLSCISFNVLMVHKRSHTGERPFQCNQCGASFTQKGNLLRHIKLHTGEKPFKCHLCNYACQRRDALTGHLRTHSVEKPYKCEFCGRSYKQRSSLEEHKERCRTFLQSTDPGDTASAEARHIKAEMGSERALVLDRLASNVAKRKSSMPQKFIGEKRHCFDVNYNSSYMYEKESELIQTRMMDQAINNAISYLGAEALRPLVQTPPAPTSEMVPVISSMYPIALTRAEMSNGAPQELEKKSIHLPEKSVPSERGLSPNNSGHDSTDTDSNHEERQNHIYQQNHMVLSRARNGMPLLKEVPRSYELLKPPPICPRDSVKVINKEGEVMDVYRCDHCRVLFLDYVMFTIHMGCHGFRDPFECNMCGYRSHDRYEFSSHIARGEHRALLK
T4 sequence (Q96SW2 whole entry): as the sequence (Q96SW2 whole entry) above
T4 sequence (Q16531 whole entry partner): as the sequence (Q16531 whole entry partner) above
T6 sequence (P15170 whole entry): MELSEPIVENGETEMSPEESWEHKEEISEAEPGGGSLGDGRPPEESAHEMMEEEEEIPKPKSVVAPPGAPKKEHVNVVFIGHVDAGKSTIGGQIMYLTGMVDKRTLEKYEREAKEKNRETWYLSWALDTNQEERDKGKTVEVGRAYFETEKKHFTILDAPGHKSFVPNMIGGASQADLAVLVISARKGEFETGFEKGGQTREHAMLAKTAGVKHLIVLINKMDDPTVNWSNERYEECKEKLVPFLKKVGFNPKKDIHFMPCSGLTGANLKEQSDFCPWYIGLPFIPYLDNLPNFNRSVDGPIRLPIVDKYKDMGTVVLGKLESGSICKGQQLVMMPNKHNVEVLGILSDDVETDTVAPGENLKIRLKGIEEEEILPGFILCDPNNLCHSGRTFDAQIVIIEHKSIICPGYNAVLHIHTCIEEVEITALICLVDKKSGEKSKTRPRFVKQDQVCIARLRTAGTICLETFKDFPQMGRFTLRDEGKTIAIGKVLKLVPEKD
T6 sequence (Q96SW2 whole entry): as the sequence (Q96SW2 whole entry) above
T6 sequence (Q16531 whole entry partner): as the sequence (Q16531 whole entry partner) above
T5 sequence (P48729 whole entry): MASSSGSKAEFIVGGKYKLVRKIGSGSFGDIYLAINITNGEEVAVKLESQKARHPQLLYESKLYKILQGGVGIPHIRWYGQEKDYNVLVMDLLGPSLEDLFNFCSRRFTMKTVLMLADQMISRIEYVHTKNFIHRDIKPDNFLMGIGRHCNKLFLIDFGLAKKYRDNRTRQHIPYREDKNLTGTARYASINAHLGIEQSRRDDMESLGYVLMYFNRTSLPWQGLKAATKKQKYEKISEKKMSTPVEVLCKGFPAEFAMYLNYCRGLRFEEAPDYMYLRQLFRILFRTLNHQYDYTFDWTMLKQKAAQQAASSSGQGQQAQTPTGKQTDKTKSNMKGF
T5 sequence (Q96SW2 whole entry): as the sequence (Q96SW2 whole entry) above
T5 sequence (Q16531 whole entry partner): as the sequence (Q16531 whole entry partner) above
T3 sequence (Q9UKS7 whole entry): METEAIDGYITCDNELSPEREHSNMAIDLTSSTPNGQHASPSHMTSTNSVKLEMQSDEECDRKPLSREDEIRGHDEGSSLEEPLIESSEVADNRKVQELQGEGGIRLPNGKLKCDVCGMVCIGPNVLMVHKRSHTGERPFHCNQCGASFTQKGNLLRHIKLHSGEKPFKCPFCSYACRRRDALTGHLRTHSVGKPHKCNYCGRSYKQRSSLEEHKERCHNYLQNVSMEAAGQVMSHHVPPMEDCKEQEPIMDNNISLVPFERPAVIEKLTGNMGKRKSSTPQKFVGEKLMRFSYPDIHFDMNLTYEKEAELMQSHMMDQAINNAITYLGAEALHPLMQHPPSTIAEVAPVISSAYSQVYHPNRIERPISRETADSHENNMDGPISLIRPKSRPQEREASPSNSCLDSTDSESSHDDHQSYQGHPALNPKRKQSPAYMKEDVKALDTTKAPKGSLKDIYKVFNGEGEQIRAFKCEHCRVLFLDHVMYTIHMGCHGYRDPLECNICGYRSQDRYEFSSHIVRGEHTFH
T3 sequence (Q96SW2 whole entry): as the sequence (Q96SW2 whole entry) above
T3 sequence (Q16531 whole entry partner): as the sequence (Q16531 whole entry partner) above

Cc1ccc(Sc2ccccc2N2CCN(Cc3ccc4c(c3)C(=O)N(C3CCC(=O)NC3=O)C4=O)CC2)c(C)c1 (centres unmarked) [GT-06761, 5-((4-(2-((2,4-dimethylphenyl)thio)phenyl)piperazin-1-yl)methyl)-2-(2,6-dioxopiperidin-3-yl)isoindoline-1,3-dione]
Weel substrate protein remaining % (WEE1; [3]): A (0% ≤ substrate protein remaining % ≤ 80%) | IKZF 1 substrate protein remaining % (IKZF1; [3]): A (0% ≤ substrate protein remaining % ≤ 80%) | IKZF2 substrate protein remaining % (IKZF2; [3]): A (0% ≤ substrate protein remaining % ≤ 80%) | IKZF3 substrate protein remaining % (IKZF3; [3]): A (0% ≤ substrate protein remaining % ≤ 80%) | CK1a substrate protein remaining % (CK1α; [3]): A (0% ≤ substrate protein remaining % ≤ 80%) | GSPT1 substrate protein remaining % (GSPT1; [3]): A (0% ≤ substrate protein remaining % ≤ 80%) | IC50 (MM.1S): 100 to 500 nM | IC50 [1]: 100 to 500 nM | IC50 (MV-4-11): 10 to 50 nM | IC50 (CCRF-CEM): 100 to 500 nM

O=C1CCC(N2Cc3cc(CN4C5CCC4CN(c4cccc(Cl)c4Cl)C5)ccc3C2=O)C(=O)N1 (centres unmarked) [GT-04855, 3-(5-((3-(2,3-dichlorophenyl)-3,8-diazabicyclo[3.2.1]octan-8-yl)methyl)-1-oxoisoindolin-2-yl)piperidine-2,6-dione]
Weel substrate protein remaining % (WEE1; [4]): A (0% ≤ substrate protein remaining % ≤ 80%) | IKZF 1 substrate protein remaining % (IKZF1; [4]): A (0% ≤ substrate protein remaining % ≤ 80%) | IKZF2 substrate protein remaining % (IKZF2; [4]): A (0% ≤ substrate protein remaining % ≤ 80%) | IKZF3 substrate protein remaining % (IKZF3; [4]): A (0% ≤ substrate protein remaining % ≤ 80%) | CK1a substrate protein remaining % (CK1α; [4]): B (80%< substrate protein remaining %≤ 100%) | GSPT1 substrate protein remaining % (GSPT1; [4]): A (0% ≤ substrate protein remaining % ≤ 80%) | IC50 [2]: < 500 nM | IC50 (SR): 500 to 1000 nM | IC50 (MM.1S): 5 to 10 nM | IC50 (Jurkat): 50 to 100 nM | IC50 (NCI-H1975): 50 to 100 nM

Cn1cc(C2CCN(Cc3ccc4c(c3)C(=O)N(C3CCC(=O)NC3=O)C4=O)CC2)c2ccc(F)cc21 (centres unmarked) [GT-06635, 2-(2,6-dioxopiperidin-3-yl)-5-((4-(6-fluoro-1-methyl-1H-indol-3-yl)piperidin-1-yl)methyl)isoindoline-1,3-dione]
Weel substrate protein remaining % (WEE1; [3]): A (0% ≤ substrate protein remaining % ≤ 80%) | IKZF 1 substrate protein remaining % (IKZF1; [3]): A (0% ≤ substrate protein remaining % ≤ 80%) | IKZF2 substrate protein remaining % (IKZF2; [3]): A (0% ≤ substrate protein remaining % ≤ 80%) | IKZF3 substrate protein remaining % (IKZF3; [3]): A (0% ≤ substrate protein remaining % ≤ 80%) | CK1a substrate protein remaining % (CK1α; [3]): A (0% ≤ substrate protein remaining % ≤ 80%) | GSPT1 substrate protein remaining % (GSPT1; [3]): A (0% ≤ substrate protein remaining % ≤ 80%) | IC50 (MM.1S): 100 to 500 nM | IC50 (Jurkat): 100 to 500 nM | IC50 [1]: 50 to 100 nM | IC50 (MV-4-11): 10 to 50 nM | IC50 (CCRF-CEM): 50 to 100 nM

O=C1CCC(N2C(=O)c3ccc(CN4CC=C(c5ncnc6sc7c(c56)CCCC7)CC4)cc3C2=O)C(=O)N1 (centres unmarked) [GT-06680, 2-(2,6-dioxopiperidin-3-yl)-5-((4-(5,6,7,8-tetrahydrobenzo[4,5]thieno[2,3-d]pyrimidin-4-yl)-3,6-dihydropyridin-1(2H)-yl)methyl)isoindoline-1,3-dione]
Weel substrate protein remaining % (WEE1; [3]): A (0% ≤ substrate protein remaining % ≤ 80%) | IKZF 1 substrate protein remaining % (IKZF1; [3]): A (0% ≤ substrate protein remaining % ≤ 80%) | IKZF2 substrate protein remaining % (IKZF2; [3]): A (0% ≤ substrate protein remaining % ≤ 80%) | IKZF3 substrate protein remaining % (IKZF3; [3]): A (0% ≤ substrate protein remaining % ≤ 80%) | CK1a substrate protein remaining % (CK1α; [3]): B (80%< substrate protein remaining %≤ 100%) | GSPT1 substrate protein remaining % (GSPT1; [3]): A (0% ≤ substrate protein remaining % ≤ 80%) | IC50 [2]: 1500 to 1900 nM | IC50 (MM.1S): 100 to 500 nM | IC50 [1]: 100 to 500 nM | IC50 (MV-4-11): 10 to 50 nM | IC50 (CCRF-CEM): 100 to 500 nM

O=C1CCC(N2Cc3cc(CN4CC=C(c5ncnc6sc(-c7ccccc7)cc56)CC4)ccc3C2=O)C(=O)N1 (centres unmarked) [GT-05101, 3-(1-oxo-5-((4-(6-phenylthieno[2,3-d]pyrimidin-4-yl)-3,6-dihydropyridin-1(2H)-yl)methyl)isoindolin-2-yl)piperidine-2,6-dione]
Weel substrate protein remaining % (WEE1; [4]): A (0% ≤ substrate protein remaining % ≤ 80%) | IKZF 1 substrate protein remaining % (IKZF1; [4]): A (0% ≤ substrate protein remaining % ≤ 80%) | IKZF2 substrate protein remaining % (IKZF2; [4]): A (0% ≤ substrate protein remaining % ≤ 80%) | IKZF3 substrate protein remaining % (IKZF3; [4]): A (0% ≤ substrate protein remaining % ≤ 80%) | CK1a substrate protein remaining % (CK1α; [4]): B (80%< substrate protein remaining %≤ 100%) | GSPT1 substrate protein remaining % (GSPT1; [4]): A (0% ≤ substrate protein remaining % ≤ 80%) | IC50 [2]: 500 to 1000 nM | IC50 (SR): 5 to 10 nM | IC50 (MM.1S): < 1 nM | IC50 (Jurkat): 1 to 5 nM | IC50 (NCI-H1975): 1 to 5 nM

O=C1CCC(N2Cc3cc(CN4CC=C(c5cccc6c(F)cccc56)CC4)ccc3C2=O)C(=O)N1 (centres unmarked) [GT-04902, 3-(5-((4-(5-fluoronaphthalen-1-yl)-3,6-dihydropyridin-1(2H)-yl)methyl)-1-oxoisoindolin-2-yl)piperidine-2,6-dione]
Weel substrate protein remaining % (WEE1; [4]): A (0% ≤ substrate protein remaining % ≤ 80%) | IKZF 1 substrate protein remaining % (IKZF1; [4]): A (0% ≤ substrate protein remaining % ≤ 80%) | IKZF2 substrate protein remaining % (IKZF2; [4]): A (0% ≤ substrate protein remaining % ≤ 80%) | IKZF3 substrate protein remaining % (IKZF3; [4]): A (0% ≤ substrate protein remaining % ≤ 80%) | CK1a substrate protein remaining % (CK1α; [4]): A (0% ≤ substrate protein remaining % ≤ 80%) | GSPT1 substrate protein remaining % (GSPT1; [4]): A (0% ≤ substrate protein remaining % ≤ 80%) | IC50 [2]: < 500 nM | IC50 (SR): 5 to 10 nM | IC50 (MM.1S): < 1 nM | IC50 (Jurkat): 1 to 5 nM | IC50 (NCI-H1975): 1 to 5 nM

O=C1CCC(N2C(=O)c3ccc(CN4CCC(c5c[nH]c6cc(F)ccc56)CC4)cc3C2=O)C(=O)N1 (centres unmarked) [GT-06633, 2-(2,6-dioxopiperidin-3-yl)-5-((4-(6-fluoro-1H-indol-3-yl)piperidin-1-yl)methyl)isoindoline-1,3-dione]
Weel substrate protein remaining % (WEE1; [3]): A (0% ≤ substrate protein remaining % ≤ 80%) | IKZF 1 substrate protein remaining % (IKZF1; [3]): A (0% ≤ substrate protein remaining % ≤ 80%) | IKZF2 substrate protein remaining % (IKZF2; [3]): A (0% ≤ substrate protein remaining % ≤ 80%) | IKZF3 substrate protein remaining % (IKZF3; [3]): A (0% ≤ substrate protein remaining % ≤ 80%) | CK1a substrate protein remaining % (CK1α; [3]): A (0% ≤ substrate protein remaining % ≤ 80%) | GSPT1 substrate protein remaining % (GSPT1; [3]): A (0% ≤ substrate protein remaining % ≤ 80%) | IC50 (MM.1S): 100 to 500 nM | IC50 (Jurkat): 100 to 500 nM | IC50 [1]: 100 to 500 nM | IC50 (MV-4-11): 50 to 100 nM | IC50 (CCRF-CEM): 100 to 500 nM

Cn1cc(C2CCN(Cc3ccc4c(c3)CN(C3CCC(=O)NC3=O)C4=O)CC2)c2ccc(F)cc21 (centres unmarked) [GT-04858, 3-(5-((4-(6-fluoro-1-methyl-1H-indol-3-yl)piperidin-1-yl)methyl)-1-oxoisoindolin-2-yl)piperidine-2,6-dione]
Weel substrate protein remaining % (WEE1; [4]): A (0% ≤ substrate protein remaining % ≤ 80%) | IKZF 1 substrate protein remaining % (IKZF1; [4]): A (0% ≤ substrate protein remaining % ≤ 80%) | IKZF2 substrate protein remaining % (IKZF2; [4]): A (0% ≤ substrate protein remaining % ≤ 80%) | IKZF3 substrate protein remaining % (IKZF3; [4]): A (0% ≤ substrate protein remaining % ≤ 80%) | CK1a substrate protein remaining % (CK1α; [4]): B (80%< substrate protein remaining %≤ 100%) | GSPT1 substrate protein remaining % (GSPT1; [4]): A (0% ≤ substrate protein remaining % ≤ 80%) | IC50 [2]: < 500 nM | IC50 (SR): 5 to 10 nM | IC50 (MM.1S): < 1 nM | IC50 (Jurkat): 1 to 5 nM | IC50 (NCI-H1975): 1 to 5 nM

CC(C)c1cc2c(C3=CCN(Cc4ccc5c(c4)CN(C4CCC(=O)NC4=O)C5=O)CC3)ncnc2s1 (centres unmarked) [GT-04935, 3-(5-((4-(6-isopropylthieno[2,3-d]pyrimidin-4-yl)-3,6-dihydropyridin-1(2H)-yl)methyl)-1-oxoisoindolin-2-yl)piperidine-2,6-dione]
Weel substrate protein remaining % (WEE1; [4]): A (0% ≤ substrate protein remaining % ≤ 80%) | IKZF 1 substrate protein remaining % (IKZF1; [4]): A (0% ≤ substrate protein remaining % ≤ 80%) | IKZF2 substrate protein remaining % (IKZF2; [4]): A (0% ≤ substrate protein remaining % ≤ 80%) | IKZF3 substrate protein remaining % (IKZF3; [4]): A (0% ≤ substrate protein remaining % ≤ 80%) | CK1a substrate protein remaining % (CK1α; [4]): A (0% ≤ substrate protein remaining % ≤ 80%) | GSPT1 substrate protein remaining % (GSPT1; [4]): A (0% ≤ substrate protein remaining % ≤ 80%) | IC50 [2]: < 500 nM | IC50 (SR): 10 to 50 nM | IC50 (MM.1S): < 1 nM | IC50 (Jurkat): 1 to 5 nM | IC50 (NCI-H1975): 1 to 5 nM
